Experimental findings from PubChem BioAssay (NCI) are described below.

Common to all, as to experiment: NCI anticancer screen, dose series, 48 h
The subject of assay [1] is U251 CNS.
For assay [2], the system named is A549 NSCLC.
Assay [3] relates to HOP-92 NSCLC.
Assay [4] has as its system SK-MEL-5 melanoma.
The subject of assay [5] is K-562 leukemia.
The test system of assay [6] is NCI/ADR-RES ovarian.
For assay [7], the system named is COLO 205 colon.
The subject of assay [8] is SNB-75 CNS.
Assay [9] concerns NCI-H23 lung.
The subject of assay [10] is RXF 393 renal.
In assay [11] the test system is TK-10 renal.

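In this assay, cells in 96-well plates receive the compound at five concentrations for 48 hours. Endpoints are linearly interpolated between the surrounding concentrations. TGI denotes the concentration required for complete inhibition of growth.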

For the molecule `C=CCOC(=O)N1c2ccc(O)cc2[C@@]23O[C@@]24[C@@H]1C#C/C=C\C#C[C@]3(O)C(OC)(OC)C[C@@H]4C`, the TGI in [1] was over 100 µM; in [2] it was over 100 µM; in assay [3], 77.9 µM; in assay [4] it was 27.4 µM; in [5], over 100 µM; in [6], over 100 µM. Moreover, the TGI in assay [7] is 33.1 µM; in assay [8] it was 45.9 µM; in [9], 93 µM; in [10], over 100 µM; in [11], over 100 µM.
As for `CCOC(=O)/C=C(\C(=O)OCC)n1cc(Cl)c(=O)n(CC(=O)OCC)c1=O`, the TGI in assay [1] is 29.6 µM; in assay [2] it was 45.8 µM; in [3] it was 5.28 µM; in assay [4], 29.1 µM; in assay [5], 4.23 µM; in assay [6], over 93.8 µM. Moreover, the TGI in assay [7] worked out at 1.86 µM; in assay [8], 35.9 µM; in [9], 42.6 µM; in [10] it was 3.77 µM; in [11], 3.6 µM.
On to `CCC(CC)(CO)CNc1cc(Cl)nc(N)n1`, for which the TGI in assay [1], in assay [2], in assay [3], in assay [4], in [5] and in assay [6] was over 100 µM throughout. The TGI in assay [7], in assay [8], in assay [9], in assay [10] and in assay [11] was over 100 µM in each case.
In the case of `COC(=O)[C@]1(c2cc3ccccc3[nH]2)CC2CN(C(=O)OCc3ccccc3)C1CC2=O` (stereo partly specified), the TGI in assay [1] is 34.1 µM; in assay [2], 91.5 µM; in assay [3] it was 87.8 µM; in [4], 34.5 µM; in [5] it was 45.1 µM; in assay [6], over 100 µM. In addition, the TGI was 30.1 µM in [7]; 64.6 µM in assay [8]; over 100 µM in assay [9]; 68.2 µM in assay [10]; over 100 µM in assay [11].
Turning to `CN1CCc2c(sc3ncn(Nc4ccc(Cl)cc4)c(=N)c23)C1`, the TGI in [1], in [2], in assay [3], in assay [4], in assay [5] and in assay [6] was over 100 µM each time. Moreover, the TGI in assay [7], in assay [8], in assay [9], in assay [10] and in [11] was over 100 µM throughout.
On to `O=c1[nH]nc(Cc2ccccc2)n1/N=C/c1cccnc1`, for which the TGI in assay [1], in assay [2], in assay [3], in assay [4], in assay [5] and in [6] was over 100 µM throughout. Further, the TGI in [7], in assay [8], in assay [9], in assay [10] and in assay [11] was over 100 µM each time.
For the molecule `Cc1c(C)c(C)c(-n2c(=O)n(C)c(=O)n2-c2cc(C(C)(C)C)cc(C(C)(C)C)c2O)c(C)c1C`, the TGI turned out to be 19.6 µM in assay [1]; 17.3 µM in assay [2]; 17.6 µM in assay [3]; 18.5 µM in [4]; 27.2 µM in assay [5]; 23.4 µM in [6]. For the same molecule, the TGI in assay [7] came out at 20 µM; in [8], 16.9 µM; in assay [9], 24 µM; in assay [10], 11.6 µM; in assay [11], 24.5 µM.
Take `O=[N+]([O-])c1cc2ccc(N(CCO)CCO)nc2nc1N(CCO)CCO`: the TGI in assay [1], in [2], in assay [3], in [4], in [5] and in assay [6] was over 100 µM each time. In addition, the TGI in assay [7], in assay [8], in assay [9], in [10] and in assay [11] was over 100 µM each time.
For the molecule `CCCCCCCCP(=O)(O)OP(=O)(O)OCC1OC(n2ccc(N)nc2=O)C(O)C1O` (stereo unspecified), the TGI in [1], in [2], in assay [3], in assay [4], in [5] and in assay [6] was over 100 µM each time. In addition, the TGI in assay [7], in assay [8], in [9], in assay [10] and in assay [11] was over 100 µM each time.
As for `O[C@@H]1CCC[C@@H]2NC[C@@H](c3ccc4c(c3)OCO4)[C@H]12`, the TGI in assay [1], in assay [2], in assay [3], in assay [4], in assay [5] and in [6] was over 100 µM in each case. In addition, the TGI in [7], in [8], in assay [9], in assay [10] and in [11] was over 100 µM each time.
Turning to `O=C1CC(=O)NC(=NN2C(=O)CSC2C(=O)c2ccco2)N1` (stereo unspecified), the TGI in assay [1], in assay [2], in [3], in assay [4], in [5] and in assay [6] was over 100 µM in each case. Besides, the TGI in [7], in assay [8], in assay [9], in [10] and in [11] was over 100 µM each time.
With `CCSc1nc(=S)n(-c2ccccc2)c(C)c1C(C)=O`, the TGI in [1], in [2], in [3], in assay [4], in assay [5] and in assay [6] was over 100 µM throughout. Further, the TGI in assay [7], in assay [8], in assay [9], in assay [10] and in assay [11] was over 100 µM throughout.
For `O=C(O)c1c2c(cc3c1CC1(Cc4cc5c(cc4C1=O)CCC5)C3)CCC2` (stereo unspecified), the TGI in assay [1], in [2], in [3], in [4], in assay [5] and in [6] was over 100 µM in each case. In addition, the TGI in assay [7], in assay [8], in assay [9], in assay [10] and in [11] was over 100 µM each time.
For the molecule `CN(C)CCNC(=O)c1cccc2nc3c(C(=O)NCCN(C)C)cccc3nc12`, the TGI in [1] was 11.2 µM; in assay [2], 6.01 µM; in assay [3], 7.83 µM; in [4] it was 3.02 µM; in assay [5] it was 12.5 µM; in assay [6] it was over 58.1 µM. Further, the TGI in [7] was 1.87 µM; in assay [8] it was 8.12 µM; in assay [9] it was 5.76 µM; in [10], 4.06 µM; in assay [11], 6.81 µM.
`S=c1nc(N/N=C/c2cccs2)c2cn[nH]c2[nH]1`: the TGI in [1] is 77.6 µM; in [2] it was 14.5 µM; in assay [3], over 100 µM; in [4] it was over 100 µM; in assay [5] it was over 100 µM; in [6], 81.7 µM. Also, the TGI in assay [7] is over 100 µM; in [8] it was over 100 µM; in [9], 66.4 µM; in [10] it was over 100 µM; in assay [11], 49.3 µM.
For the molecule `CN(CCCNC(=O)c1nn(C)c2c1Cc1ccccc1-2)CCCNC(=O)c1nn(C)c2c1Cc1ccccc1-2`, the TGI in [1] was 26.2 µM; in assay [2], 33.3 µM; in assay [3] it was 35 µM; in assay [4], 29.8 µM; in assay [5], 25.6 µM; in assay [6] it was over 68.9 µM. Moreover, the TGI in assay [7] was 30.2 µM; in [8], 31.5 µM; in assay [9], 47.3 µM; in assay [10] it was 34.3 µM; in assay [11], 36.2 µM.
For `CC(C)(C)NC(=O)/C(=C\Sc1ccccc1)c1ccccc1`, the TGI in assay [1] is over 100 µM; in assay [2] it was over 100 µM; in assay [3] it was over 42.4 µM; in assay [4], over 100 µM; in assay [5], over 100 µM; in [6], over 100 µM. For the same molecule, the TGI in assay [7], in assay [8], in assay [9], in assay [10] and in assay [11] was over 100 µM throughout.
Regarding `COC(=O)c1c(C)cccc1C1CN=NC12Cc1cc(C)cc(C)c1C2=O` (stereo unspecified), the TGI in [1] was over 100 µM; in assay [2] it was over 100 µM; in [3], 64.2 µM; in [4] it was 44.6 µM; in [5], over 100 µM; in assay [6], over 100 µM. Also, the TGI was 31.9 µM in [7]; 99.3 µM in assay [8]; 78.4 µM in assay [9]; over 100 µM in [10]; 98.3 µM in assay [11].
`COc1ccc(NC(C(N)=O)c2cc3cc(Br)ccc3nc2Cl)cc1` (stereo unspecified): the TGI in [2] was over 100 µM; in assay [3] it was 99.7 µM; in assay [4], over 100 µM; in assay [5] it was over 100 µM; in assay [6] it was over 100 µM; in assay [7], over 100 µM. Besides, the TGI in [8] was over 100 µM; in [9] it was over 100 µM; in [10], over 100 µM; in [11] it was 37.9 µM.
Regarding `CCOC(=O)CCN1C(=O)C(=O)N(c2ccc(OC)cc2)C1=S`, the TGI in [1], in assay [2], in assay [3], in assay [4], in assay [5] and in assay [6] was over 100 µM each time. For the same molecule, the TGI in assay [7], in assay [8], in assay [9], in assay [10] and in [11] was over 100 µM in each case.
For the molecule `O=C(OC1CN2CCC1CC2)N(c1ccccc1)c1ccccc1` (stereo unspecified), the TGI in assay [1], in assay [2], in [3], in assay [4], in [5] and in [6] was over 100 µM in each case. Also, the TGI in assay [7], in assay [8], in [9], in assay [10] and in assay [11] was over 100 µM in each case.
Consider `O=[N+]([O-])c1cc(F)ccc1S(=O)(=O)c1ccccc1`, for which the TGI in assay [1], in assay [2], in assay [3], in assay [4], in [5] and in assay [6] was over 10 µM in each case. The TGI in assay [7], in assay [8], in [9], in assay [10] and in assay [11] was over 10 µM throughout.
Consider `COC(=O)C1=C(O)CCCC(C2CCCCC(=O)C2C(=O)OC)=C1` (stereo unspecified), for which the TGI in assay [1], in [2], in [3], in [4], in assay [5] and in [6] was over 100 µM in each case. The TGI in [7], in assay [8], in [9], in assay [10] and in [11] was over 100 µM in each case.
Consider `COC1=C(C)C(=O)C2=C(C1=O)C1C3CC4=C(C(=O)C(OC)=C(C)C4=O)C(CNC(=O)C(C)O)N3C(C#N)C(C2)N1C` (stereo unspecified), for which the TGI is under 0.01 µM in assay [3]; under 0.01 µM in assay [4]; 1.48 µM in [5]; 8.72 µM in assay [6]; under 0.01 µM in assay [7]; 0.0171 µM in assay [8]. For the same molecule, the results for the TGI in assay [9], in assay [10] and in assay [11] were 0.0183 µM, 0.022 µM and 0.579 µM, respectively.
